In PubChem BioAssay AID218 (DTP/NCI, 2004):
“And” between values parts separate entries of the source, which are not always exact repeats. Identical values can stand only once.

Tested on: C57BL/6 mice, Adenocarcinoma 755 sc, tumor weight T/C
Assay: NCI In Vivo Anticancer Drug Screen. Data for tumor model Adenocarcinoma 755 (subcutaneous) in C57BL/6 mice
Settings: endpoint: mean tumor weight, higher = larger tumour
Description: The antitumor activity of compounds was measured in mice bearing transplantable tumors. Survival or tumor size were measured and the results are expressed as the measurement made in the treated group (T) divided by the measurement made in the vehicle treated control group (C). The tumor model used in this assay is Adenocarcinoma 755 (subcutaneous) in C57BL/6 mice

[1] = dose: 50.0 mg/kg/injection, schedule: Q01DX011 (ip), vehicle: saline
[2] = dose: 100.0 mg/kg/injection, schedule: Q01DX011 (ip), vehicle: saline
[3] = dose: 150.0 mg/kg/injection, schedule: Q02DX006 (ip), vehicle: saline
[4] = dose: 200.0 mg/kg/injection, schedule: Q02DX006 (ip), vehicle: saline

## CSc1ncnc2c1ncn2C1OC(CO)C(O)C1O (stereo not drawn)
dose: 5.0 mg/kg/injection, schedule: Q01DX011 (ip), vehicle: saline
  T/C: 78 % of control
dose: 10.0 mg/kg/injection, schedule: Q01DX011 (ip), vehicle: saline
  T/C: 50 % of control
dose: 15.0 mg/kg/injection, schedule: Q01DX011 (ip), vehicle: saline
  T/C: 67 % of control

## O=[N+]([O-])c1ccc2c(c1)Cc1c-2cc(Br)c(O)c1Br
dose: 62.5 mg/kg/injection, schedule: Q01DX011 (ip), vehicle: saline
  T/C: 60 % of control
dose: 125.0 mg/kg/injection, schedule: Q01DX011 (ip), vehicle: saline
  T/C: 58 % of control
dose: 250.0 mg/kg/injection, schedule: Q01DX011 (ip), vehicle: saline
  T/C: 43 % of control
dose: 500.0 mg/kg/injection, schedule: Q01DX011 (ip), vehicle: saline
  T/C: 33 % of control

## NC(=O)c1ccc(N)nc1
dose: 1.0 mg/kg/injection, schedule: Q01DX011 (ip), vehicle: saline
  T/C: 92 % of control and 94 % of control
dose: 1.5 mg/kg/injection, schedule: Q01DX011 (ip), vehicle: saline
  T/C: 52 % of control
dose: 2.0 mg/kg/injection, schedule: Q01DX011 (ip), vehicle: saline
  T/C: 48 % of control

## CCCCCCCCCNc1ncnc2[nH]ncc12
[1]
  T/C: 51 % of control
[2]
  T/C: 64 % of control

## COC(=O)C(N)CCl (stereo not drawn)
[3]
  T/C: 74 % of control
[4]
  T/C: 83 % of control

## CCCCNc1ncnc2nc[nH]c12
dose: 30.0 mg/kg/injection, schedule: Q01DX011 (ip), vehicle: carboxymethylcellulose (CMC)
  T/C: 91 % of control

## NC(=S)N/N=C/c1ccc(N)cc1
dose: 35.0 mg/kg/injection, schedule: Q02DX006 (ip), vehicle: other
  T/C: 86 % of control
dose: 40.0 mg/kg/injection, schedule: Q02DX006 (ip), vehicle: other
  T/C: 85 % of control
dose: 50.0 mg/kg/injection, schedule: Q02DX006 (ip), vehicle: other
  T/C: 87 % of control
dose: 60.0 mg/kg/injection, schedule: Q02DX006 (ip), vehicle: other
  T/C: 70 % of control
dose: 70.0 mg/kg/injection, schedule: Q02DX006 (ip), vehicle: other
  T/C: 77 % of control

## N/C(=N/N=C/c1ccc([N+](=O)[O-])cc1)N[N+](=O)[O-]
[3]
  T/C: 53 % of control
[4]
  T/C: 37 % of control

## CCSCCC(N)C(=O)O (stereo not drawn)
[1]
  T/C: 113 % of control
dose: 75.0 mg/kg/injection, schedule: Q02DX006 (ip), vehicle: other
  T/C: 67 % of control
[2]
  T/C: 67 % of control and 78 % of control
dose: 100.0 mg/kg/injection, schedule: Q02DX006 (ip), vehicle: other
  T/C: 65 % of control
dose: 150.0 mg/kg/injection, schedule: Q01DX011 (ip), vehicle: saline
  T/C: 72 % of control

## Cc1c2ccccc2c(C)c2c1ccc1ccccc12
dose: 9.0 mg/kg/injection, schedule: Q01DX011 (ip), vehicle: saline
  T/C: 44 % of control
dose: 19.0 mg/kg/injection, schedule: Q01DX011 (ip), vehicle: saline
  T/C: 19 % of control

## NNc1ncnc2nc[nH]c12
dose: 30.0 mg/kg/injection, schedule: Q01DX011 (ip), vehicle: saline
  T/C: 67 % of control
dose: 60.0 mg/kg/injection, schedule: Q01DX011 (ip), vehicle: saline
  T/C: 34 % of control

## CSc1nc2nc[nH]c2c(=O)[nH]1
dose: 50.0 mg/kg/injection, schedule: Q01DX011 (ip), vehicle: carboxymethylcellulose (CMC)
  T/C: 112 % of control

## CCc1nc(N)nc(N)c1-c1ccc(Cl)cc1
[1]
  T/C: 67 % of control
